From patent US20250129088A1, “CEREBLON E3 UBIQUITIN LIGASE INHIBITOR” (Gan & Lee Pharmaceuticals Co., Ltd., priority 2022, published 2025) come the findings set out here.

Common to all, as to type: cell-based
The test system of one assay is MOLM-13 cells. Kind of assay: MOLM-13 cell proliferation inhibition, CCK-8. To be noted: Homo sapiens, 96 h, MOLM-13, 4 days. Here is the method:
The complete medium required for MOLM-13 cells is 1640 (ATCC, Product number: 30-2001) basal medium containing 20% fetal bovine serum. MOLM-13 cells were seeded in a 96-well plate at a density of 7,500 cells/well, and different concentrations of the compounds of the present invention were prepared to treat the cells at the same time. The cells were incubated in a 37° C., 5% CO2 cell culture incubator for 4 days. Cell viability was detected using the CCK-8 kit (Beyotime, Product number: C0040) according to the manufacturer's instructions. According to the inhibition rate, GraphPad Prism software was used to calculate the IC50 value of each compound for 4 days, and the results are shown in Table 9-10.

Another assay concerns MV-4-11 cells. In words: MV-4-11 cell proliferation inhibition, CCK-8. To be noted: Homo sapiens, MV4-11, 96 h, MV-4-11, 4 days. Here is the method: The complete medium required for MV-4-11 cells is IMDM (ATCC, Product number: 30-2005) basal medium containing 10% fetal bovine serum. MV-4-11 cells were seeded in a 96-well plate at a density of 7,500 cells/well, and different concentrations of the compound of the present invention and positive control samples Alisertib (source: Bide Pharmaceuticals), Palbociclib (source: Bide Pharmaceuticals), Ibrutinib (source Bide Pharmaceuticals) treated cells. The cells were incubated in a 37° C., 5% CO2 cell incubator for 4 days. Cell viability was detected using the CCK-8 kit (Beyotime, Product number: C0040) according to the manufacturer's instructions. According to the inhibition rate, GraphPad Prism software was used to calculate the IC50 value of each compound for 4 days, and the results are shown in Table 6-8.

Another assay deals with K562 cells. In words: K562 cell proliferation inhibition, CCK-8. As to conditions: Homo sapiens, 96 h, K562, 4 days. Here is the method: The complete medium required for K562 cells is IMDM (ATCC, Product number: 30-2005) basal medium containing 10% fetal bovine serum. K562 cells were seeded in a 96-well plate at a density of 7,500 cells/well, and different concentrations of the compound of the present invention and positive control samples Alisertib (source: Bide Pharmaceuticals) and dBET6 (source: Bide Pharmaceuticals) were prepared to treat the cells. The cells were incubated at a 37° C., 5% CO2 cell culture incubator for 4 days.
Cell viability was detected using the CCK-8 kit (Beyotime, Product number: C0040) according to the manufacturer's instructions. According to the inhibition rate, GraphPad Prism software was used to calculate the IC50 value of each compound for 4 days, and the results are shown in Table 11-12.

The mark [1] stands for this setting: Table 7, positive control Palbociclib.
Where [2] appears, read: Table 6, positive control Alisertib.
The mark [3] stands for this setting: Table 11, positive control Alisertib.
[4] abbreviates: Table 12, positive control dBET6.

As for `CC(=O)c1c(C)c2cnc(Nc3ccc(N4CCN(CCOCCC(=O)N5CCC6(CCc7cc8c(cc7O6)CN(C6CCC(=O)NC6=O)C8=O)CC5)CC4)cn3)nc2n(C2CCCC2)c1=O` (centres unmarked) [PROTAC 43, 3-(1-(3-(2-(4-(6-((6-acetyl-8-cyclopentyl-5-methyl-7-oxo-7,8-dihydropyridone[2,3-d]pyrimidin-2-yl)amino)pyridin-3-yl)piperazin-1-yl)ethoxy)propionyl)-6′-oxo-6′,8′-dihydro-3′H,7′H-spiro[piperidine-4,2′-[1,4]dioxino[2,3-f]isoindole]-7′-yl)piperidine-2,6-dione], the values for the IC50 in the assay with MOLM-13 cells (Table 10) and in the assay on MV-4-11 cells (setting [1]) were 1870 nM and 2490 nM, respectively.
Turning to `COc1cc(Nc2ncc3c(n2)-c2ccc(Cl)cc2C(c2c(F)cccc2OC)=NC3)ccc1C(=O)NCCOCCC(=O)N1CCC2(CC1)COc1cc3c(cc12)C(=O)N(C1CCC(=O)NC1=O)C3=O` (centres unmarked) [PROTAC 7, 4-((9-chloro-7-(2-fluoro-6-methoxyphenyl)-5H-benzo[c]pyrimido[4,5-e]azepine-2-yl)amino)-N-(2-(3-(6-(2,6-dioxopiperidin-3-yl)-5,7-dioxo-6,7-dihydro-2H,5H-spiro[furan [2,3-f]isoindole-3,4′-piperidin]-1′-yl)-3-oxopropoxy)ethyl)-2-methoxybenzamide], the IC50 in the assay with MV-4-11 cells (setting [2]) was determined as 360 nM; in the assay on K562 cells (setting [3]), 1470 nM.
`CC(=O)c1c(C)c2cnc(Nc3ccc(N4CCN(CCOCCC(=O)N5CCC6(CC5)COc5cc7c(cc56)C(=O)N(C5CCC(=O)NC5=O)C7=O)CC4)cn3)nc2n(C2CCCC2)c1=O` (centres unmarked) [PROTAC 41, 1′-(3-(2-(4-(6-((6-acetyl-8-cyclopentyl-5-methyl-7-oxo-7,8-dihydropyridone[2,3-d]pyrimidin-2-yl)amino)pyridin-3-yl)piperazin-1-yl)ethoxy)propionyl)-6-(2,6-dioxopiperidin-3-yl)-6-hydro-2H,5H-spiro[furo[2,3-f]isoindole-3,4′-piperidine]-5,7-dione]: the figures for the IC50 in the assay on MOLM-13 cells (Table 10) and in the assay with MV-4-11 cells (setting [1]) were 2190 nM and 2160 nM, respectively.
The corresponding values for `CC(=O)c1c(C)c2cnc(Nc3ccc(N4CCN(CCOCCC(=O)N5CC6(CCc7cc8c(cc7O6)C(=O)N(C6CCC(=O)NC6=O)C8=O)C5)CC4)cn3)nc2n(C2CCCC2)c1=O` (centres unmarked) [PROTAC 39, 1-(3-(2-(4-(6-((6-acetyl-8-cyclopentyl-5-methyl-7-oxo-7,8-dihydropyridone[2,3-d]pyrimidin-2-yl)amino)pyridin-3-yl)piperazin-1-yl)ethoxy)propionyl)-7′-(2,6-dioxopiperidin-3-yl)-3′,4′-dihydro-6′H-spiro[azetidine-3,2′-pyrano[2,3-f]isoindole]-6′,8′(7′ H)-dione] are 12400 nM and 12700 nM.
In the case of `Cc1nc(Nc2ncc(C(=O)Nc3c(C)cccc3Cl)s2)cc(N2CCN(CCOCCC(=O)N3CCC4(CCc5cc6c(cc5O4)C(=O)N(C4CCC(=O)NC4=O)C6=O)CC3)CC2)n1` (centres unmarked) [PROTAC 9, N-(2-chloro-6-methylphenyl)-2-((6-(4-(2-(3-(7′-(2,6-dioxopiperidin-3-yl)-6′,8′-dioxo-4′,6′,7′,8′-tetrahydro-3′H-spiro[piperidine-4,2′-pyrano[2,3-f]isoindol]-1-yl)-3-oxopropoxy)ethyl)piperazin-1-yl)-2-methylpyrimidin-4-yl)amino)thiazole-5-carboxamide], the IC50 was found to be 1110 nM in the assay on MOLM-13 cells (Table 9) and 16 nM in the assay on K562 cells (setting [4]).
The corresponding values for `Cc1nc(Nc2ncc(C(=O)Nc3c(C)cccc3Cl)s2)cc(N2CCN(CCOCCC(=O)N3CCC4(CC3)COc3cc5c(cc34)C(=O)N(C3CCC(=O)NC3=O)C5=O)CC2)n1` (centres unmarked) [PROTAC 12, N-(2-chloro-6-methylphenyl)-2-((6-(4-(2-(3-(6-(2,6-dioxopiperidin-3-yl)-5,7-dioxo-6,7-dihydro-2H,5H-spiro[furo[2,3-f]isoindole-3,4′-piperidin]-1′-yl)-3-oxopropoxy)ethyl)piperazin-1-yl)-2-methylpyrimidin-4-yl)amino)thiazole-5-carboxamide] are 4770 nM and 40 nM.
The like results for `Cc1nc(Nc2ncc(C(=O)Nc3c(C)cccc3Cl)s2)cc(N2CCN(CCOCCC(=O)N3CCC4(CC3)COc3cc5c(cc3C4)C(=O)N(C3CCC(=O)NC3=O)C5=O)CC2)n1` (centres unmarked) [PROTAC 10, N-(2-chloro-6-methylphenyl)-2-((6-(4-(2-(3-(7′-(2,6-dioxopiperidin-3-yl)-6′,8′-dioxo-4′,6′,7′,8′-tetrahydro-2′H-spiro[piperidine-4,3′-pyrano[2,3-f]isoindole]-1-yl)-3-oxopropoxy)ethyl)piperazin-1-yl)-2-methylpyrimidin-4-yl)amino)thiazole-5-carboxamide] were, in that order, 1050 nM and 17 nM.
As to `CC(=O)c1c(C)c2cnc(Nc3ccc(N4CCN(CCOCCC(=O)N5CC6(CCc7cc8c(cc7O6)CN(C6CCC(=O)NC6=O)C8=O)C5)CC4)cn3)nc2n(C2CCCC2)c1=O` (centres unmarked) [PROTAC 45, 3-(1-(3-(2-(4-(6-((6-acetyl-8-cyclopentyl-5-methyl-7-oxo-7,8-dihydropyridone[2,3-d]pyrimidin-2-yl)amino)pyridin-3-yl)piperazin-1-yl)ethoxy)propionyl)-6′-oxo-3′,4′,6′,8′-tetrahydro-7′H-spiro[azetidine-3,2′-pyrano[2,3-f]isoindole]-7′-yl)piperidine-2,6-dione], the results for the IC50 with MOLM-13 cells (Table 10) and with MV-4-11 cells (setting [1]) were 4340 nM and 4250 nM, respectively.
The molecule `CC(=O)c1c(C)c2cnc(Nc3ccc(N4CCN(CCOCCC(=O)N5CCC6(CC5)COc5cc7c(cc5C6)C(=O)N(C5CCC(=O)NC5=O)C7=O)CC4)cn3)nc2n(C2CCCC2)c1=O` (centres unmarked) [PROTAC 40, 1-(3-(2-(4-(6-((6-acetyl-8-cyclopentyl-5-methyl-7-oxo-7,8-dihydropyridone[2,3-d]pyrimidin-2-yl)amino)pyridin-3-yl)piperazin-1-yl)ethoxy)propionyl)-7′-(2,6-dioxopiperidin-3-yl)-2′H-spiro[piperidine-4,3′-pyrano[2,3-f]isoindole]-6′,8′(4′H,7′H)-dione] registered an IC50 in the assay with MOLM-13 cells (Table 10) of 4870 nM.
As for `CC(=O)c1c(C)c2cnc(Nc3ccc(N4CCN(CCOCCC(=O)N5CC6(CCc7cc8c(cc7O6)C(=O)N(C6CCC(=O)NC6=O)C8)C5)CC4)cn3)nc2n(C2CCCC2)c1=O` (centres unmarked) [PROTAC 44, 3-(1-(3-(2-(4-(6-((6-acetyl-8-cyclopentyl-5-methyl-7-oxo-7,8-dihydropyridone[2,3-d]pyrimidin-2-yl)amino)pyridin-3-yl)piperazin-1-yl)ethoxy)propionyl)-8′-oxo-3′,4′,6′,8′-tetrahydro-7′H-spiro[azetidine-3,2′-pyrano[2,3-f]isoindole]-7′-yl)piperidine-2,6-dione], the half-maximal inhibitory concentration (IC50) turned out to be 1310 nM with MOLM-13 cells (Table 10) and 3310 nM with MV-4-11 cells (setting [1]).
The like results for `CC(=O)c1c(C)c2cnc(Nc3ccc(N4CCN(CCOCCC(=O)N5CCC6(CCc7cc8c(cc7O6)C(=O)N(C6CCC(=O)NC6=O)C8)CC5)CC4)cn3)nc2n(C2CCCC2)c1=O` (centres unmarked) [PROTAC 42, 3-(1-(3-(2-(4-(6-((6-acetyl-8-cyclopentyl-5-methyl-7-oxo-7,8-dihydropyridone[2,3-d]pyrimidin-2-yl)amino)pyridin-3-yl)piperazin-1-yl)ethoxy)propionyl)-8′-oxo-3′,4′,6′,8′-tetrahydro-7′H-spiro[piperidine-4,2′-pyrano[2,3-f]isoindole]-7′-yl)piperidine-2,6-dione] were, in that order, 830 nM and 940 nM.
On to `COc1cc(Nc2ncc3c(n2)-c2ccc(Cl)cc2C(c2c(F)cccc2OC)=NC3)ccc1C(=O)O` [Alisertib, reference compound], for which the IC50 in the assay on MV-4-11 cells (setting [2]) was determined as 26 nM; in the assay with K562 cells (setting [3]) it was 3770 nM.

The IC50 is the concentration that inhibits the measured activity by half. The low end stands for higher potency, the high end for lower potency.
